Laboratory results from ChEMBL document CHEMBL3425434 (J Med Chem, 2015).
The source made the active and inactive calls. The rule behind the calls is not given here.

Columns and labels:
[1] = Cytotoxicity against human HDF-1 cells assessed as decrease in cell viability after 2 hrs by WST-1 assay; assay type: cell-based
[2] = Induction of apoptosis in human HDF-1 cells assessed as increase in caspase3/7 activity at 40-100 uM after 24 hrs by caspase Glo-3/7 assay; assay type: cell-based; details: hdf-1, 24 h
HDF-1 = experiment: Induction of cell migration in human HDF-1 cells after 8 hrs by wound healing assay; assay type: functional, cell-based
[3] = target: T1, Rho-associated protein kinase 2 (Homo sapiens, UniProt O75116); experiment: Inhibition of human N-terminal GST-tagged ROCK2 expressed in baculovirus-infected insect cells using long S6 kinase peptide as substrate by radiometric assay in presence of [32P]ATP
T1 sequence (O75116 whole entry): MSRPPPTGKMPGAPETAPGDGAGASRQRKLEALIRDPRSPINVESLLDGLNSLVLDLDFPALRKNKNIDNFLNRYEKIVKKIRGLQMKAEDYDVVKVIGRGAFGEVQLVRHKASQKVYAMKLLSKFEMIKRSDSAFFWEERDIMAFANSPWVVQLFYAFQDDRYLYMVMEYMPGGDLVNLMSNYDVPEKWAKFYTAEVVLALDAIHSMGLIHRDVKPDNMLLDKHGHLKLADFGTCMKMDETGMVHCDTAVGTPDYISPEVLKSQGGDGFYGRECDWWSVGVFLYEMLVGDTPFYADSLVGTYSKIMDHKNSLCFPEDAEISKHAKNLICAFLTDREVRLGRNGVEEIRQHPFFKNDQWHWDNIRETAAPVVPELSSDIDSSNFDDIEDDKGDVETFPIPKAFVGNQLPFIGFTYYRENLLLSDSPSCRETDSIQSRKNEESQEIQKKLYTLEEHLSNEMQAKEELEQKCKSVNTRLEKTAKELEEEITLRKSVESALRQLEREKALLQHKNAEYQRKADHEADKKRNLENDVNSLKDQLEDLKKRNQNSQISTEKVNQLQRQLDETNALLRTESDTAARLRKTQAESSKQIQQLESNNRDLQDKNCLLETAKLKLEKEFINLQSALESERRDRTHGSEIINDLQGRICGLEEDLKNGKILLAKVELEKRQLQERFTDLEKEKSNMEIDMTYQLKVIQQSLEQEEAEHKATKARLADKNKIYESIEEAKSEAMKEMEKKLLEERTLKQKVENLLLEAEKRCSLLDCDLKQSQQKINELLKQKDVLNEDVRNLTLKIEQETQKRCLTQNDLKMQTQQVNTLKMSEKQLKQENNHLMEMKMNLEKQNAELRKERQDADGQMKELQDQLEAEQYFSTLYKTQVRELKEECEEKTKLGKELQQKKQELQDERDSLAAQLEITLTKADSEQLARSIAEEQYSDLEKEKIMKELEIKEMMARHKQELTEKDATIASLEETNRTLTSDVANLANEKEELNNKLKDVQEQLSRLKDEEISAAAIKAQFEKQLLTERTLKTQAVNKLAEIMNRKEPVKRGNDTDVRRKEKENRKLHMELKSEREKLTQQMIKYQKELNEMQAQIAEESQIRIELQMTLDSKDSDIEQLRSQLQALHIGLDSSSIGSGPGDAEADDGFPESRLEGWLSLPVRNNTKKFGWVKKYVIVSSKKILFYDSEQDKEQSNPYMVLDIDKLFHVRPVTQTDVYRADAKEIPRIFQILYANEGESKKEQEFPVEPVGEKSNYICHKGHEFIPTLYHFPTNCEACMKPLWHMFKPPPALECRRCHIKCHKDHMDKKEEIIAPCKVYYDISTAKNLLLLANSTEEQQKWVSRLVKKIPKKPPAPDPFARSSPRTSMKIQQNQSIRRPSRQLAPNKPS

[4] = target: T1, Rho-associated protein kinase 2; experiment: Inhibition of human N-terminal GST-tagged ROCK2 expressed in baculovirus-infected insect cells using long S6 kinase peptide as substrate by radiometric assay in presence of [32P]ATP and 200 uM ATP
[5] = Inhibition of ROCK-catalysed MLC Thr18/Ser19 phosphorylation in rat A7r5 cells after 90 mins by ELISA; assay type: cell-based; details: A7R5, 1.5 h
[6] = Half life in human plasma by LC-MS/MS analysis; assay type: ADME, cell-free
[7] = Stability in human plasma assessed as compound remaining after 60 mins by LC-MS/MS analysis; assay type: ADME, cell-free; details: read-out: Stability
[8] = Stability in human plasma assessed as compound remaining after 60 mins by LC-MS/MS analysis in presence of 5 uM cholinesterase inhibitor tacrine; assay type: ADME, cell-free; details: with tacrine (cholinesterase inhibitor), read-out: Stability
Oryctolagus cuniculus [9] = experiment: Cmax in NewZealand white rabbit plasma assessed as 4-{[(2'-(Aminomethyl)-5'-{[(3-fluoropyridin-4-yl)amino]-carbonyl}biphenyl-3-yl)carbonyl]amino}benzoic Acid at 0.1 mg/kg, iv after 120 mins by LC-MS/MS analysis; assay type: ADME, organism-based; parameters: dose 0.1 mg/kg, route intravenous; details: in vivo, 2 h
[10] = target: T2, Protein kinase C epsilon type (Homo sapiens) (UniProt Q02156); experiment: Inhibition of human full length PKC epsilon expressed in insect cells using S25 PKC peptide as substrate at 100 nM by radiometric assay in presence of [32P]ATP
T2 sequence (whole entry): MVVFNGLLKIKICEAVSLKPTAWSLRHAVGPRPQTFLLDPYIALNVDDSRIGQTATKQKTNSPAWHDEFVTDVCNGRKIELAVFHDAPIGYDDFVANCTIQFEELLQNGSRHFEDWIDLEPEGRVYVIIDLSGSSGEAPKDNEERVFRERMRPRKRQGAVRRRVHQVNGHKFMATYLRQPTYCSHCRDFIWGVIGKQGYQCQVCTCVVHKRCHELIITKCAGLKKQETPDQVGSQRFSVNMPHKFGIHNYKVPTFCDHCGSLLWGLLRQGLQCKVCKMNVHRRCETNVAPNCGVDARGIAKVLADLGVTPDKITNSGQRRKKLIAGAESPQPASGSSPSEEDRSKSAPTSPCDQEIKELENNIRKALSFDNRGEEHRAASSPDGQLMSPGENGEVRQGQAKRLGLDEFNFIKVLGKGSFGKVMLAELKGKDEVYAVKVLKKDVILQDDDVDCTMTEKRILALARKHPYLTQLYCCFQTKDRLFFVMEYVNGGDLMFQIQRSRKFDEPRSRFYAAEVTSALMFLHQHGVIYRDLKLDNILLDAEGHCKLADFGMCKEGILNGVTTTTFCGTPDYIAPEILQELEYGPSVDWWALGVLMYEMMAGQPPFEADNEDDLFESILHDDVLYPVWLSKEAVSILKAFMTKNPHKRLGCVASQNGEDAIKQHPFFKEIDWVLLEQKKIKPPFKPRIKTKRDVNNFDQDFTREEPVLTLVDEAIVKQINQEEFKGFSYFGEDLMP

[11] = target: Protein kinase C eta type (Homo sapiens) (UniProt P24723); experiment: Inhibition of human N-terminal GST-tagged PKC eta expressed in baculovirus-infected insect cells using PKCe peptide as substrate at 100 nM by radiometric assay in presence of [32P]ATP and lipid activator
Chain of Protein kinase C eta type (Homo sapiens) (P24723 whole entry): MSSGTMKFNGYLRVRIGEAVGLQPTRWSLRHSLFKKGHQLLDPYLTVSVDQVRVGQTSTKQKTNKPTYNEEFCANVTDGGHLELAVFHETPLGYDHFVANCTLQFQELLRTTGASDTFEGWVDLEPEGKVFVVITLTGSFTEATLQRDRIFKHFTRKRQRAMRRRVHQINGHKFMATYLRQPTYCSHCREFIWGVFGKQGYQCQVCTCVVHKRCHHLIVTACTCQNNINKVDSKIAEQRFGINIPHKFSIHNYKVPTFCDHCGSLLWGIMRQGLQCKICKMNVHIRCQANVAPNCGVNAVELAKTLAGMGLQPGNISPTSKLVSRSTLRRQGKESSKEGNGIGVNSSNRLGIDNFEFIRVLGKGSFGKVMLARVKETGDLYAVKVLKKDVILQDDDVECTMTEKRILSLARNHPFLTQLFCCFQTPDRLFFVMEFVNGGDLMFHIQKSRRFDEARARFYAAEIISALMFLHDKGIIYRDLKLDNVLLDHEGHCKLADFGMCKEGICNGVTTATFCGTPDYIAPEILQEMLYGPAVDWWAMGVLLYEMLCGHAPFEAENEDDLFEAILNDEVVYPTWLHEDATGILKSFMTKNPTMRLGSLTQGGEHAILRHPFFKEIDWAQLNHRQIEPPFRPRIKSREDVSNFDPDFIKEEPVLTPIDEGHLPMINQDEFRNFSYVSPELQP

[12] = target: Protein kinase C delta type (Homo sapiens) (UniProt Q05655); experiment: Inhibition of human full length PKC delta expressed in insect cells using PKCe peptide as substrate at 100 nM by radiometric assay in presence of [32P]ATP and lipid activator
Chain of Protein kinase C delta type (Homo sapiens) (Q05655 whole entry, looked up): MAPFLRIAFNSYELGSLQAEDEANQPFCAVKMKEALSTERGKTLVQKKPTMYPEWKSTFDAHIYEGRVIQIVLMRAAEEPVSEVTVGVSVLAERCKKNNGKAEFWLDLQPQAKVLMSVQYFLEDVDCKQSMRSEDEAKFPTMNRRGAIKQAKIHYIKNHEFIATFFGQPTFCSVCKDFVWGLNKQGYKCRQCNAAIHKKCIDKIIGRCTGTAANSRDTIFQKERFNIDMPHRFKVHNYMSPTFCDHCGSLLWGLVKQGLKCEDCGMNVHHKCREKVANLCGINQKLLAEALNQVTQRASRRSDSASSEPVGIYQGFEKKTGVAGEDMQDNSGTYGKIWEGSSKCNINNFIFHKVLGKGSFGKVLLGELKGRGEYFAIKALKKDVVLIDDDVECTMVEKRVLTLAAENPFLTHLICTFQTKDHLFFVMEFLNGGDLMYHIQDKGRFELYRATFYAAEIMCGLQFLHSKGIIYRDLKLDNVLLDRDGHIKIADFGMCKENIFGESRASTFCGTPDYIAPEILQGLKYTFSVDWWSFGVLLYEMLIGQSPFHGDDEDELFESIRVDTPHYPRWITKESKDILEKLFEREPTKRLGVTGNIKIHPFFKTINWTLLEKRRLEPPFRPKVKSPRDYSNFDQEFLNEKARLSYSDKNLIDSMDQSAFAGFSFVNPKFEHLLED

Homo sapiens = species: Homo sapiens; experiment: Inhibition of human full length C-terminal His6-tagged PKC theta P300L mutant expressed in baculovirus-infected insect cells using histone H1 as substrate at 100 nM by radiometric assay in presence of [32P]ATP and lipid activator
[13] = target: Ribosomal protein S6 kinase alpha-5 (Homo sapiens) (UniProt O75582); experiment: Inhibition of human full length N-terminal GST-tagged MSK1 expressed in insect cells using crosstide as substrate at 100 nM by radiometric assay in presence of [32P]ATP
[14] = target: Serine/threonine-protein kinase N1 (Homo sapiens) (UniProt Q16512); experiment: Inhibition of human full length N-terminal GST-tagged PRK1 expressed in insect cells using glycogen synthase derived peptide as substrate at 100 nM by radiometric assay in presence of [32P]ATP
Chain of Serine/threonine-protein kinase N1 (Homo sapiens) (Q16512 2-942 limits assumed): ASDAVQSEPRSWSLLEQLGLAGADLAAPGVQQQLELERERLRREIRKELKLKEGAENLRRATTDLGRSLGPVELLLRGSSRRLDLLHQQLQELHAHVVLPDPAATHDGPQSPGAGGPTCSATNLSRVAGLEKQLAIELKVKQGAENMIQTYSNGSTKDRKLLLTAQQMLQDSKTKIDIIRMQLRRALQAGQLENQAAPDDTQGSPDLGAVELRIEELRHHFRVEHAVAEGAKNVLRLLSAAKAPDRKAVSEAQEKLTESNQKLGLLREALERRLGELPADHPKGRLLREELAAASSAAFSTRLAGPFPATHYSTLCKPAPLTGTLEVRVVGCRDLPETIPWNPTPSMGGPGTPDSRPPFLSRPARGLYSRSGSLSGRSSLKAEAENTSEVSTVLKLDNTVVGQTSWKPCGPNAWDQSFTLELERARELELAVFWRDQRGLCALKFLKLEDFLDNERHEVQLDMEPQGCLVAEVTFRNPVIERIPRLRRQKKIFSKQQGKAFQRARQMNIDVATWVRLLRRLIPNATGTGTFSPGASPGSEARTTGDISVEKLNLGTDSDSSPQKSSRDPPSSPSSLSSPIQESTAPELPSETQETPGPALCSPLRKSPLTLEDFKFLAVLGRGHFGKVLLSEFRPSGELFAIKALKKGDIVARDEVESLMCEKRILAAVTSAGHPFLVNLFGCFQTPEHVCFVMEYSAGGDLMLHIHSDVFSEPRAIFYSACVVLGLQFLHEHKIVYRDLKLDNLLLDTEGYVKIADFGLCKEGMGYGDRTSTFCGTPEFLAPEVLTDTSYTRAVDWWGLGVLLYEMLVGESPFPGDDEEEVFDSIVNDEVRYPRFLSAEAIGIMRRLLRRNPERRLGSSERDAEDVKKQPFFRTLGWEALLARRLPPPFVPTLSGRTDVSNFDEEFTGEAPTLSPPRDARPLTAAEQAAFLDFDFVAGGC

[15] = target: Serine/threonine-protein kinase N2 (Homo sapiens) (UniProt Q16513); experiment: Inhibition of human full length N-terminal GST-tagged PRK2 expressed in insect cells using glycogen synthase derived peptide as substrate at 100 nM by radiometric assay in presence of [32P]ATP
Chain of Serine/threonine-protein kinase N2 (Homo sapiens) (Q16513 whole entry, looked up): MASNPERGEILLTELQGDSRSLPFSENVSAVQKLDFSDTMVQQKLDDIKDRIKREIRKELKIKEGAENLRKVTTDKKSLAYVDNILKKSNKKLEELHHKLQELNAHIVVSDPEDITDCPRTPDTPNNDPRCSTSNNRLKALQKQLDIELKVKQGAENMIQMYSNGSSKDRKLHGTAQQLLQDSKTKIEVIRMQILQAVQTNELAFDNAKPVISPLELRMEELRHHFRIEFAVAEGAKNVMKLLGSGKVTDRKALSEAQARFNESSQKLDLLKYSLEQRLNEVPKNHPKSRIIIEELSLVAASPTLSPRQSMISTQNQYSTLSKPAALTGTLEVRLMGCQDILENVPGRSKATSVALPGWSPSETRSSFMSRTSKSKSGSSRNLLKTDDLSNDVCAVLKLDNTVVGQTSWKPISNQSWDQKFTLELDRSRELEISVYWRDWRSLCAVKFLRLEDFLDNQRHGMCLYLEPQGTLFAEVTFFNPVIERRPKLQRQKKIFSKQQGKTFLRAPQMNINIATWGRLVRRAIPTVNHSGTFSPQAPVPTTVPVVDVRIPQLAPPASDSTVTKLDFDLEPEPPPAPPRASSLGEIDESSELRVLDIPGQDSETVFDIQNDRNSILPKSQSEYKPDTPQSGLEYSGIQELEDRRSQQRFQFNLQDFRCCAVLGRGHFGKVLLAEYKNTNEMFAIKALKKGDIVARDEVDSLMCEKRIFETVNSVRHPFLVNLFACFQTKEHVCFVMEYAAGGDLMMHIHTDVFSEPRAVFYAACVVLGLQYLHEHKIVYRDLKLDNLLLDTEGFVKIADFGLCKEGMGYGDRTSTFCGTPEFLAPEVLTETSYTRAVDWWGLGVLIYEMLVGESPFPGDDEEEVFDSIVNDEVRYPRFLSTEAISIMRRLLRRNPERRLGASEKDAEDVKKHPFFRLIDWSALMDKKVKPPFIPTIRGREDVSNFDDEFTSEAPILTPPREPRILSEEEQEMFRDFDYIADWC

[16] = target: T3, cAMP-dependent protein kinase catalytic subunit PRKX (Homo sapiens) (UniProt P51817); experiment: Inhibition of human full length N-terminal GST-tagged PRKX expressed in insect cells using kemptide as substrate at 100 nM by radiometric assay in presence of [32P]ATP
T3 sequence (whole entry): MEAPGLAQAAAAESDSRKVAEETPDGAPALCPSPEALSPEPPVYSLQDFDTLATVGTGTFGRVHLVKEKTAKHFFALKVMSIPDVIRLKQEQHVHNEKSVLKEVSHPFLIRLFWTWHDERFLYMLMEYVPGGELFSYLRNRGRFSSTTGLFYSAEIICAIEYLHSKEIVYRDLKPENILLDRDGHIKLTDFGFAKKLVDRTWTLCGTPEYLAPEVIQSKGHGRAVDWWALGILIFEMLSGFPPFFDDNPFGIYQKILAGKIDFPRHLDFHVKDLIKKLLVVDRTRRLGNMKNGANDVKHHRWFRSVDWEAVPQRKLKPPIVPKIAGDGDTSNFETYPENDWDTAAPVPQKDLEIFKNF

[17] = target: Protein kinase C eta type (Homo sapiens) (UniProt P24723); experiment: Inhibition of human N-terminal GST-tagged PKC eta expressed in baculovirus-infected insect cells using PKCe peptide as substrate at 10 nM by radiometric assay in presence of [32P]ATP and lipid activator
[18] = target: Serine/threonine-protein kinase N2 (Homo sapiens) (UniProt Q16513); experiment: Inhibition of human full length N-terminal GST-tagged PRK2 expressed in insect cells using glycogen synthase derived peptide as substrate at 10 nM by radiometric assay in presence of [32P]ATP
[19] = Induction of apoptosis in human HDF-1 cells assessed as increase in caspase3/7 activity at 60 uM after 24 hrs by caspase Glo-3/7 assay; assay type: cell-based; details: hdf-1, 24 h
[20] = target: Rho-associated protein kinase 1 (Homo sapiens, UniProt Q13464); experiment: Inhibition of human N-terminal GST-tagged ROCK1 expressed in insect cells using long S6 kinase peptide as substrate by radiometric assay in presence of [32P]ATP
[21] = Apparent permeability across human Caco2 cells; assay type: ADME, cell-based; details: Caco-2
[22] = Lipophilicity, log D of the compound at pH 7.4; assay type: physicochemical; details: buffer
[23] = Half life in NewZealand white rabbit plasma by LC-MS/MS analysis; assay type: ADME, cell-free, Oryctolagus cuniculus; details: New Zealand white
[24] = Half life in human hepatocytes by LC-PDA-MSA analysis; assay type: ADME, cell-based, Hepatocyte
[25] = Half life in NewZealand white rabbit hepatocytes by LC-PDA-MSA analysis; assay type: ADME, cell-based, Oryctolagus cuniculus, Hepatocyte; details: New Zealand white
[26] = Stability in human hepatocytes assessed as compound remaining after 120 mins by LC-MS/MS analysis; assay type: ADME, cell-based, Hepatocyte; details: read-out: Stability
[27] = Stability in NewZealand white rabbit hepatocytes assessed as compound remaining after 120 mins by LC-MS/MS analysis; assay type: ADME, cell-based, Oryctolagus cuniculus, Hepatocyte; details: New Zealand white, read-out: Stability
[28] = Cmax in NewZealand white rabbit plasma at 0.1 mg/kg, iv after 1 min by LC-MS/MS analysis; assay type: ADME, organism-based, Oryctolagus cuniculus; parameters: dose 0.1 mg/kg, route intravenous; details: New Zealand white
[29] = Cmax in NewZealand white rabbit plasma at 0.1 mg/kg, iv after 5 mins by LC-MS/MS analysis; assay type: ADME, organism-based, Oryctolagus cuniculus; parameters: dose 0.1 mg/kg, route intravenous; details: New Zealand white
[30] = Cmax in NewZealand white rabbit plasma at 0.1 mg/kg, iv after 10 mins by LC-MS/MS analysis; assay type: ADME, organism-based, Oryctolagus cuniculus; parameters: dose 0.1 mg/kg, route intravenous; details: New Zealand white
[31] = Half life in NewZealand white rabbit plasma at 0.1 mg/kg, iv by LC-MS/MS analysis; assay type: ADME, organism-based, Oryctolagus cuniculus; parameters: dose 0.1 mg/kg, route intravenous; details: New Zealand white
[32] = Cmax in NewZealand white rabbit plasma at 0.1 mg/kg, iv after 30-60 mins by LC-MS/MS analysis; assay type: ADME, organism-based, Oryctolagus cuniculus; parameters: dose 0.1 mg/kg, route intravenous; details: New Zealand white
Oryctolagus cuniculus [33] = experiment: Cmax in NewZealand white rabbit plasma assessed as 4-{[(2'-(Aminomethyl)-5'-{[(3-fluoropyridin-4-yl)amino]-carbonyl}biphenyl-3-yl)carbonyl]amino}benzoic Acid at 0.1 mg/kg, iv after 10 mins by LC-MS/MS analysis; assay type: ADME, organism-based; parameters: dose 0.1 mg/kg, route intravenous; details: in vivo
Plasma [34] = experiment: Stability in human plasma by LC-MS/MS analysis in presence of carboxylesterase inhibitor BNPP; assay type: ADME, cell-free
Plasma [35] = experiment: Stability in human plasma by LC-MS/MS analysis in presence of arylesterase inhibitor DTNB; assay type: ADME, cell-free
Plasma [36] = experiment: Stability in human plasma by LC-MS/MS analysis in presence of 5 mM PON1 inhibitor, disodium EDTA; assay type: ADME, cell-free
Plasma [37] = experiment: Stability in human plasma after 120 mins by LC-MS/MS analysis in presence of generic serine protease/serine esterase inhibitor, PMSF; assay type: ADME, cell-free; details: 2 h

SMILES: NCc1ccc(C(=O)Nc2ccncc2F)cc1-c1cccc(C(=O)Nc2ccc(CC(=O)OC3CCCC3)cc2)c1
- CC50 at 2 h [1]: 29000 nM
- Activity [2]: Toxic
- Activity (HDF-1): Dose-dependent effect
- IC50 [3]: < 1 nM
- IC50 [4]: 1.3 nM
- EC50 [5]: 26 nM
- half-life [6]: 7 min
- remaining at 1 h [7]: 2%
- remaining at 1 h [8]: 100%

SMILES: COC(=O)c1ccc(NC(=O)c2cccc(-c3cc(C(=O)Nc4ccncc4F)ccc3CN)c2)cc1
- Cmax (Oryctolagus cuniculus [9]): > 35 nM
- inhibition [10]: Active
- inhibition [11]: Active
- inhibition [12]: Active
- inhibition (Homo sapiens): Active
- inhibition [13]: Active
- inhibition [14]: Active
- inhibition [15]: Active
- inhibition [16]: Active
- inhibition [17]: > 50%
- inhibition [18]: > 50%
- CC50 at 2 h [1]: 46000 nM
- Activity [19]: Toxic
- Activity (HDF-1): Dose-dependent effect
- IC50 [20]: < 1 nM
- IC50 [3]: < 1 nM
- IC50 [4]: 4.1 nM
- EC50 [5]: 3 nM
- half-life [6]: > 120 min
- Papp [21]: 0.8 ×10⁻⁶ cm/s
- logD [22]: 2.74
- half-life [23]: > 120 min
- half-life [24]: 12 min
- half-life [25]: 12 min
- remaining at 2 h [26]: 2.4%
- remaining at 2 h [27]: 0.4%
- Cmax [28]: 803 nM
- Cmax [29]: 176 nM
- Cmax [30]: 57 nM
- half-life [31]: 22 min
- Cmax [32]: > 8 nM
- Cmax (Oryctolagus cuniculus [33]): 255 nM

SMILES: COC(=O)c1ccc(F)c(NC(=O)c2cccc(-c3cc(C(=O)Nc4ccncc4F)ccc3CN)c2)c1
- CC50 at 2 h [1]: 45000 nM
- Activity [19]: Toxic
- Activity (HDF-1): Dose-dependent effect
- IC50 [3]: 1.6 nM
- IC50 [4]: 46 nM
- EC50 [5]: 26 nM
- half-life [6]: 18 min
- Stability (Plasma [34]): Unstable
- Stability (Plasma [35]): Unstable
- Stability (Plasma [36]): Unstable
- Stability (Plasma [37]): Stable
- remaining at 1 h [7]: 13%
- remaining at 1 h [8]: 98%
